Measured values from US10905665B2, “Chemical modulators of signaling pathways and therapeutic use” (Duke University, priority 2015, dated 2021).

These molecules were tested on Wnt/β-catenin transcription (assay: Wnt-3A-stimulated TOPFlash reporter assay in HEK293 cells). Details: 0.5 μM.
Format: cell-based
Protocol: Stably transfected cells were seeded in 100 μl of cell growth medium/well in 96-well plates at 100% confluency. Fifty microliters of Wnt-3A conditioned medium containing the chemical compounds to be tested or DMSO was added to each well. After an 8 hour treatment, the cells were washed once with PBS and lysed with 55 μl of Passive Lysis Buffer supplied in the Dual-Luciferase Reporter Assay kit (Promega, Madison, Wis.). Twenty-five microliters of cell lysate was used for measuring luciferase activity in a 96-well plate reader (FluoStar Optima, BMG Labtech, Chicago, Ill.). Data were fit using GraphPad Prism (mean±SEM, n>=2).

Row | Compound | Inhibition Wnt/β-catenin transcription TopFlash, % inhibition @ 0.5 μM [% inhibition]
1 | O=C(CCCCCN1C(=O)C=CC1=O)Oc1ccc(Cl)cc1C(=O)Nc1ccc([N+](=O)[O-])cc1Cl [Compound 67, 4-chloro-2-((2-chloro-4-nitrophenyl)carbamoyl)phenyl 6-(2,5-dioxo-2,5-dihydro-1H-pyrrol-1-yl)hexanoate] | 75
2 | CC(C)(C)OC(=O)CCC(=O)Oc1ccc(Cl)cc1C(=O)Nc1ccc([N+](=O)[O-])cc1Cl [Compound 65, tert-butyl (4-chloro-2-((2-chloro-4-nitrophenyl)carbamoyl)phenyl) succinate] | 60
3 | CC(C)C(=O)Oc1ccc(Cl)cc1C(=O)Nc1ccc([N+](=O)[O-])cc1Cl [Compound 64, 4-chloro-2-((2-chloro-4-nitrophenyl)carbamoyl)phenyl isobutyrate] | 70

Same assay, conditions: 1 μM

Row | Compound | Inhibition Wnt/β-catenin transcription TopFlash, % inhibition @ 1 μM
4 | O=c1oc2ccc(Cl)cc2c(=O)n1-c1ccc(C(F)(F)F)cc1F [Compound 76, 6-chloro-3-(2-fluoro-4-(trifluoromethyl)phenyl)-2H-benzo[e][1,3]oxazine-2,4(3H)-dione] | 90% @ 1 μM
5 | COc1cc(O)c(C(=O)Nc2ccc([N+](=O)[O-])cc2Cl)cc1Cl [Compound 54, 5-chloro-N-(2-chloro-4-nitrophenyl)-2-hydroxy-4-methoxybenzamide] | 70% inhibition
6 | Cc1ccc(S(=O)(=O)Nc2ccccc2C(=O)Nc2ccc([N+](=O)[O-])cc2)cc1 [C, 2-((4-methylphenyl)sulfonamido)-N-(4-nitrophenyl)benzamide, reference compound] | 47% inhibition
7 | O=C(Nc1ccc([N+](=O)[O-])cc1Cl)c1cc(-c2ccccc2)ccc1O [Compound 41, N-(2-chloro-4-nitrophenyl)-4-hydroxy-[1,1′-biphenyl]-3-carboxamide] | 90% inhibition

Same assay, conditions: 3 μM

Row | Compound | Inhibition Wnt/β-catenin transcription TopFlash, % inhibition @ 3 μM [% inhibition]
8 | Cc1cc([N+](=O)[O-])ccc1NC(=O)c1cc(Cl)ccc1O [Compound 26, 5-chloro-2-hydroxy-N-(2-methyl-4-nitrophenyl)benzamide] | 80

Same assay, conditions: 5 μM

Row | Compound | Inhibition Wnt/β-catenin transcription TopFlash, % inhibition @ 5 μM [% inhibition]
9 | O=C(Nc1ccc(C(F)(F)F)cc1Cl)c1c(O)ccc2ccccc12 [Compound 43, N-(2-chloro-4-(trifluoromethyl)phenyl)-2-hydroxy-1-naphthamide] | 50
10 | O=C(Nc1ccc(C(F)(F)F)cc1Cl)c1cc2ccccc2cc1O [Compound 44, N-(2-chloro-4-(trifluoromethyl)phenyl)-3-hydroxy-2-naphthamide] | 80
11 | O=C(Nc1ccc(C(F)(F)F)cc1Cl)c1ccc2ccccc2c1O [Compound 45, N-(2-chloro-4-(trifluoromethyl)phenyl)-1-hydroxy-2-naphthamide] | 60

Same assay, conditions: 20 μM

Row | Compound | Inhibition Wnt/β-catenin transcription TopFlash, % inhibition @ 20 μM [% inhibition]
12 | O=C(Nc1ccc([N+](=O)[O-])cc1Cl)c1cc(Cl)ccc1OC(=O)N1CCOCC1 [Compound 71, 4-chloro-2-((2-chloro-4-nitrophenyl)carbamoyl)phenyl morpholine-4-carboxylate] | 60

Same assay, conditions: Homo sapiens, HEK293, 8 h

Row | Compound | inhibition at 10 µM [%] | inhibition at 2 µM [%]
13 | CS(=O)(=O)Nc1ccc(Cl)cc1C(=O)Nc1ccc([N+](=O)[O-])cc1Cl [Compound 51, 5-chloro-N-(2-chloro-4-nitrophenyl)-2-(methylsulfonamido)benzamide] | 70 | 
14 | O=C(Nc1ccc(Br)cc1)c1cc(Br)ccc1O [D, 5-bromo-N-(4-bromophenyl)-2-hydroxybenzamide, reference compound] |  | 60
15 | C=CCOc1cc([N+](=O)[O-])ccc1NC(=O)c1cc(Cl)ccc1OC(C)=O [Compound 60, 2-((2-(allyloxy)-4-nitrophenyl)carbamoyl)-4-chlorophenyl acetate] |  | 80
16 | O=C(Nc1ccc(OCc2ccccc2)c(Cl)c1)c1cc(Cl)ccc1O [Compound 27, N-(4-(benzyloxy)-3-chlorophenyl)-5-chloro-2-hydroxybenzamide] |  | 75
17 | CCCCC/C=C\C/C=C\CCCCCCCC(=O)Oc1ccc(Cl)cc1C(=O)Nc1ccc([N+](=O)[O-])cc1Cl [Compound 69, 4-chloro-2-((2-chloro-4-nitrophenyl)carbamoyl)phenyl (9Z,12Z)-octadeca-9,12-dienoate] |  | 85
18 | C#CCOc1cc([N+](=O)[O-])ccc1NC(=O)c1cc(Cl)ccc1O [Compound 33, 5-chloro-2-hydroxy-N-(4-nitro-2-(prop-2-yn-1-yloxy)phenyl)benzamide] |  | 45
19 | O=CCOc1cc([N+](=O)[O-])ccc1NC(=O)c1cc(Cl)ccc1O [Compound 31, 5-chloro-2-hydroxy-N-(4-nitro-2-(2-oxoethoxy)phenyl)benzamide] |  | 55
20 | C=CCOc1cc([N+](=O)[O-])ccc1NC(=O)c1cc(Cl)ccc1O [Compound 30, N-(2-(allyloxy)-4-nitrophenyl)-5-chloro-2-hydroxybenzamide] | 98 | 
21 | O=C(Nc1ccc([N+](=O)[O-])c(Cl)c1)c1cc(Cl)ccc1O [Compound 36, 5-chloro-N-(3-chloro-4-nitrophenyl)-2-hydroxybenzamide] |  | 90
22 | O=C(Nc1ccc([N+](=O)[O-])c(F)c1)c1cc(Cl)ccc1O [Compound 32, 5-chloro-N-(3-fluoro-4-nitrophenyl)-2-hydroxybenzamide] | 90 | 
23 | CCCCCCCC/C=C\CCCCCCCC(=O)Oc1ccc(Cl)cc1C(=O)Nc1ccc([N+](=O)[O-])cc1Cl [Compound 68, 4-chloro-2-((2-chloro-4-nitrophenyl)carbamoyl)phenyl oleate] |  | 60
24 | C#CCCCCOc1cc([N+](=O)[O-])ccc1NC(=O)c1cc(Cl)ccc1O [Compound 39, 5-chloro-N-(2-(hex-5-yn-1-yloxy)-4-nitrophenyl)-2-hydroxybenzamide] |  | 80
25 | COc1ccc(C(=O)Nc2ccc([N+](=O)[O-])cc2Cl)c(O)c1 [Compound 53, N-(2-chloro-4-nitrophenyl)-2-hydroxy-4-methoxybenzamide] |  | 70
26 | Cc1ccc(S(=O)(=O)Nc2ccc(Br)cc2C(=O)Nc2ccc(C(F)(F)F)cc2)cc1 [Compound 48, 5-bromo-2-((4-methylphenyl)sulfonamido)-N-(4-(trifluoromethyl)phenyl)benzamide] | 93 | 
27 | O=C(Nc1ccc([N+](=O)[O-])cc1Cl)c1cc(-c2ccc(F)cc2F)ccc1O [Compound 42, N-(2-chloro-4-nitrophenyl)-2′,4′-difluoro-4-hydroxy-[1,1′-biphenyl]-3-carboxamide] |  | 90
28 | CCCCCCCCCCCCCCCCCC(=O)Oc1ccc(Cl)cc1C(=O)Nc1ccc([N+](=O)[O-])cc1Cl [Compound 62, 4-chloro-2-((2-chloro-4-nitrophenyl)carbamoyl)phenyl stearate] | 70 | 
29 | O=C(Nc1ccc([N+](=O)[O-])c(N2CCOCC2)c1)c1cc(Cl)ccc1O [Compound 34, 5-chloro-2-hydroxy-N-(3-morpholino-4-nitrophenyl)benzamide] | 40 | 

Same assay, conditions: Homo sapiens, HEK293, 8 h, Wnt-3A conditioned medium, 8 hour treatment; read-out: Inhibition Wnt/β-catenin transcription TopFlash IC50

Row | Compound | IC50 [nM]
30 | O=C(Nc1c(F)cccc1F)c1cc(Cl)ccc1O [Compound 21, 5-chloro-N-(2,6-difluorophenyl)-2-hydroxybenzamide] | > 12000
31 | O=C(Nc1ccccc1)c1ccc(NC(=O)c2cc(Cl)ccc2O)cc1 [Compound 40, 5-chloro-2-hydroxy-N-(4-(phenylcarbamoyl)phenyl)benzamide] | 33000
32 | O=C(CCCCCNC(=O)CCCCC1SCC2NC(=O)NC21)NCCCCCC(=O)NCCOCCOCCOc1cc([N+](=O)[O-])ccc1NC(=O)c1cc(Cl)ccc1O (stereo not drawn) [Compound 29, 5-chloro-2-hydroxy-N-(4-nitro-2-((10,17,24-trioxo-28-(2-oxohexahydro-1H-thieno[3,4-d]imidazol-4-yl)-3,6-dioxa-9,16,23-triazaoctacosyl)oxy)phenyl)benzamide] | > 12000
33 | CCCCCCC(=O)Oc1ccc(Cl)cc1C(=O)N(C(=O)CCCCCC)c1ccc([N+](=O)[O-])cc1Cl [Compound 77, 4-Chloro-2-((2-chloro-4-nitrophenyl)(heptanoyl)carbamoyl)phenyl heptanoate] | 1600
34 | CCCCCCCCOC(=O)O/C(=N/c1ccc([N+](=O)[O-])cc1Cl)c1cc(Cl)ccc1OC(=O)OCCCCCCCC [Compound 79, 5-chloro-N-(2-chloro-4-nitrophenyl)-2-(((octyloxy)carbonyl)oxy)benzimidic (octyl carbonic) anhydride] | 800
35 | O=c1oc2ccc(Cl)cc2c(=O)n1-c1ccc([N+](=O)[O-])cc1Cl [Compound 75, 6-chloro-3-(2-chloro-4-nitrophenyl)-2H-benzo[e][1,3]oxazine-2,4(3H)-dione] | 370 ± 130
36 | CCCCCCCCOC(=O)Oc1ccc(Cl)cc1C(=O)Nc1ccc([N+](=O)[O-])cc1Cl [Compound 72, 4-chloro-2-((2-chloro-4-nitrophenyl)carbamoyl)phenyl octyl carbonate] | 500

Same assay, conditions: concentration not given

Row | Compound | Inhibition Wnt/β-catenin transcription TopFlash, result in words
37 | COc1cc(O)c(C(=O)Nc2ccc(OCc3ccccc3)c(Cl)c2)cc1OC [Compound 47, N-(4-(benzyloxy)-3-chlorophenyl)-2-hydroxy-4,5-dimethoxybenzamide] | stimulates

Same assay, conditions: up to 12 μM

Row | Compound | Inhibition Wnt/β-catenin transcription TopFlash, result in words
38 | COc1cc(O)c(C(=O)Nc2ccc([N+](=O)[O-])cc2Cl)cc1OC [Compound 46, N-(2-chloro-4-nitrophenyl)-2-hydroxy-4,5-dimethoxybenzamide] | No inhibit. up
39 | O=C(Nc1ccc(C(F)(F)F)cc1)c1cnc2ccccc2c1O [Compound 49, 4-hydroxy-N-(4-(trifluoromethyl)phenyl)quinoline-3-carboxamide] | Stimulates up
